According to article PMC9967758, “Preclinical Efficacy of a PARP-1 Targeted Auger-Emitting Radionuclide in Prostate Cancer” (International Journal of Molecular Sciences, 2023):

Biological target: T1, Poly (ADP-ribose) polymerase-1 (PARP-1) (Homo sapiens, UniProt P09874)
T1 construct: gene PARP1
Assay: radioligand saturation binding in PC-3 tumor xenografts

T1 sequence (P09874 2-1014): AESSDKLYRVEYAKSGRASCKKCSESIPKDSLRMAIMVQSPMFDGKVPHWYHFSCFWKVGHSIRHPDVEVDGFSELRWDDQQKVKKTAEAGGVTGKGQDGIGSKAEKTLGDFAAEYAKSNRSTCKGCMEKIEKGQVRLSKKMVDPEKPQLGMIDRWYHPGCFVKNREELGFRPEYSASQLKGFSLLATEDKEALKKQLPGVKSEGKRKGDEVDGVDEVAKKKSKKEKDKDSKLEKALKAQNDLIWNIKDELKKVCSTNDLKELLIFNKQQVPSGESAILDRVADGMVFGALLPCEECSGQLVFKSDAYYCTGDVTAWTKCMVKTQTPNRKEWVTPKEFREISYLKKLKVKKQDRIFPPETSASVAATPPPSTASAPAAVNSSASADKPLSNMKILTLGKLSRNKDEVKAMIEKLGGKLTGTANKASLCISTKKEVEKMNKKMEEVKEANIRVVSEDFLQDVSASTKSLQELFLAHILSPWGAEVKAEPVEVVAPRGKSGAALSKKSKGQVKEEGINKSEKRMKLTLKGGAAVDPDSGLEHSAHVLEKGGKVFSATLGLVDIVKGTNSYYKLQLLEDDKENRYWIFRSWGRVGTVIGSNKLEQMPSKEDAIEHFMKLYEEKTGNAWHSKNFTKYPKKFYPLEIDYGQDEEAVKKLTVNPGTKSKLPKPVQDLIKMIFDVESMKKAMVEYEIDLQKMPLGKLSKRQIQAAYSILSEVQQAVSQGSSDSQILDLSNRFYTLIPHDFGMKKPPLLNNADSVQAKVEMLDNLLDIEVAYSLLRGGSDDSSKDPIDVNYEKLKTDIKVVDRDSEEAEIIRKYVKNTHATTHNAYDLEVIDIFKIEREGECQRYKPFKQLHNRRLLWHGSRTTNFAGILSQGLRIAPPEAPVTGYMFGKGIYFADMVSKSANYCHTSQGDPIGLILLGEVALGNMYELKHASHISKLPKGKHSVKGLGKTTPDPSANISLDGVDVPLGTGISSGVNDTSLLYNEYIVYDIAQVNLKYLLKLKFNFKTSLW

Substance: [^77Br]Br-WC-DZ
- Kd: 0.58 ± 0.25 nM
